From patent US6303596A, “Use of taurolidine for treatment of leukemias” (priority 2000, dated 2001)

How the values were obtained:
Format in all cases: cell-based, human
ECV304 = assay: TUNEL / propidium iodide flow cytometry, ECV304; conditions: ECV304, 6 hours after treatment
Procedure: In the second method, DNA fragmentation was detected via TUNEL assay according to the manufacturer's instructions. With this methodology, 2×10^6 cells were fixed with 2% paraformaldehyde, permeabilized with 0.1% Triton X-100/0.1% citrate, incubated at 37° C. with terminal deoxynucleotidyl transferase and FITC-dUTP, rinsed and analyzed by flow cytometry. Enhanced FITC signal indicates apoptosis-specific DNA fragmentation. Gavriali, et al, "Identification of programmed cell death in situ via specific labeling of nuclear DNA fragmentation," J Cell Biol 119:493 (1992). Parallel aliquots of unfixed cells were treated with PI and FITC-conjugated anti-CD14 and analyzed by flow cytometry, in order to identify cells with permeable cell membranes (since PI binds to DNA but is excluded from cells with intact plasma membranes) and also to determine the cell-specificity of the apoptotic signal.
In another study, TUNEL assays were performed on all cell lines 6 hours after cells were initially exposed to taurolidine (cells were treated for 4 hours, rinsed, and then incubated for 2 more hours before TUNEL assay was performed).
. Taurolidine and anisomycin induced apoptosis in MM6, HL-60, and Jurkat cells (Table VIII). MM6 and HL-60 cells were similarly effected, with >80% TUNEL-positive cells after 6 hours. […]
Data are percent of total cell-size events, and are expressed as mean ± […]

[1] = tested on: other leukemia-derived cell lines; assay: growth after taurolidine treatment, other leukemia-derived cell lines; conditions: 50 μg/ml or greater
Procedure: In these experiments, integrity of cell membranes following taurolidine treatment was assessed by exclusion of trypan blue and by measuring the release of LDH in MM6, K-562, HL-60, and REH cells. Since BCS contains significant amounts of LDH, these experiments were conducted on cells cultured in AIM-V+0.01% BCS. Four hour treatment of cells was conducted in AIM-V containing 0.01% BCS in order to allow subsequent LDH assay without interference from BCS (which occurs in when normal culture medium, containing 10% BCS, is used). Thus, MM6 cells (5×10^5 cells/ml) were treated with taurolidine for four hours in AIM-V+0.01% BCS, after which an aliquot of the cell suspension was removed for measurement of LDH release. A parallel aliquot of cells was lysed by three cycles of freeze/thaw and the quantity of LDH released was taken to be 100%. Remaining cells were rinsed in HBSS and resuspended in growth medium for measurement of growth rates.
HL-60 cells treated with 50 μl taurolidine. In these samples, LDH present in the culture medium was 8.3±2.3% of that released by completely lysed cells, compared with 2.3±0.8% measured in control cultures. […] After 4 hour treatment, cells were rinsed and returned to growth medium and monitored for viability and growth over the following 3 days. […]

TNFα = assay: LPS-induced TNFα expression/secretion by MM6 cells, ELISA; conditions: 4 h
Procedure: FIG. 3A and FIG. 3B are graphs depicting taurolidine inhibition of LPS-induced alpha […] (TNFα) expression by monocytic cells as determined by assay procedures. FIG. 3A represents MM6 cells; FIG. 3B represents PBMC. The cells were induced with LPS (hatched bars: 100 ng/ml LPS in RPMI+10% BCS; solid bars: 10 ng/ml in AIM-V+0.01% BCS) in the presence of varying concentrations of taurolidine. After four hours, cell supernatants were collected for TNFα ELISA. Data are expressed as percent of TNFα levels measured in cell cultures treated with LPS alone (no taurolidine or vehicle). Experiments were performed with duplicate samples and were repeated at least three times. Values shown in FIG. 3A are from a representative experiment. Values shown in FIG. 3B are mean±SEM of three experiments.
All cells were cultured in a 5% CO2 atmosphere at 37° C. MM6 cells were grown in RPMI supplemented with 10% BCS, 2 mM L-glutamine, and 50 μg/ml gentamicin (RPMI+10% BCS). In some experiments, MM6 cells were rinsed once with HBSS without Ca^++ or Mg^++ and once with AIM-V before finally being resuspended in AIM-V supplemented with 0.01% BCS (AIM-V+0.01% BCS). […] AIM-V was supplemented with a low amount of BCS (0.01%) in order to provide a source of LPS-binding protein, which enhances the response of monocytic cells to LPS. Ulevitch, R. J. and Tobias, P. S., "Recognition of endotoxin by cells leading to transmembrne signaling," Curr Opin Immunol 6:125 (1994). HL-60, REH, and Jurkat were cultured in RPMI supplemented with 10% heat inactivated fetal bovine serum (FBS), 2 mM L-glutamine, and 50 μg/ml gentamicin. ECV304 were cultured in M199 supplemented with 10% FBS, mM L-glutamine, and 50 μg/ml gentamicin. GM5387 was cultured in MEM supplemented with 20% FBS, 2 mM L-glutamine, and 50 μg/ml gentamicin.
For induction of TF or TNFα expression, MM6 cells or PBMC were cultured either in RPMI supplemented with 10% BCS or in AIM-V+0.01% BCS, and stimulated by adding LPS to final concentrations of 10 to 100 ng/ml. […]

SMILES: O=S1(=O)CCN(CN2CCS(=O)(=O)NC2)CN1 [taurolidine, 4,4'-methylenebis(perhydro-1,2,4-thiadiazin 1,1-dioxide)]
- DNA fragmentation (TUNEL positivity) (ECV304): did not demonstrate evidence for fragmentation of DNA
- growth after taurolidine treatment [1]: inhibition of growth
- effect on LPS-induced TNFα secretion (TNFα; MM6, intermediate concentrations, particularly 25 μg/ml taurolidine): markedly stimulating TNFα secretion
- inhibition of LPS-induced TNFα secretion (TNFα; MM6, taurolidine 75 μg/ml): maximal inhibition
